According to ChEMBL document CHEMBL6071143, “Discovery of a potent melatonin-based inhibitor of quinone reductase-2 with neuroprotective and neurogenic properties” (Eur J Med Chem, 2024):
In brackets after ≈: the same amount, converted by molar mass. Activity calls are given as the source filed them. No cut-off for these calls is given here.

How the values were obtained:
[1] = Displacement of 2-[125I]iodomelatonin from human MT1R transfected in CHO cells incubated for 30 mins; type: cell-based
[2] = Aqueous solubility of compound incubated for 24 hrs by UV-spectra analysis; type: physicochemical
SH-SY5Y [3] = assay: Neuroprotective activity against R/O induced human SH-SY5Y cells oxidative stress model assessed as cell survival at 1 uM preincubated for 24 hrs followed by rotenone oligomycin A addition and measured after 24 hrs by MTT assay; type: functional; settings: read-out: Survival
SH-SY5Y [4] = assay: Cytotoxicity against human SH-SY5Y cells at 1 to 100 uM incubated for 24 hrs by MTT method; type: toxicity, cell-based; settings: dose 1-100 µM
[5] = Displacement of 2-[125I]iodomelatonin from human MT2R transfected in CHO cells incubated for 30 mins; type: cell-based
[6] = Antioxidant activity assessed as oxygen radical scavenging by measuring trolox equivalents preincubated for 15 mins followed by AAPH addition and measured after 80 mins by fluorescence plate reader assay; type: functional; settings: time 95.0 min
[7] = Octanol-water partition coefficient, logD of the compound at pH 3; type: physicochemical
[8] = Octanol-water partition coefficient, logD of the compound at pH 6; type: physicochemical
[9] = Dissociation constant, pKa of compound; type: physicochemical
NSC [10] = assay: Neurogenic activity in C57BL/6 mouse primary NSCs assessed as increase in number of MAP-2 cells at 10 uM incubated for 10 days by DAPI staining based fluorescence confocal microscopy; type: functional, cell-based; settings: time 10.0 day
[11] = Octanol-water partition coefficient, logD of the compound at pH 1.2; type: physicochemical
SH-SY5Y [12] = assay: Neuroprotective activity against R/O induced human SH-SY5Y cells oxidative stress model assessed as increase in cell survival preincubated for 24 hrs followed by rotenone oligomycin A addition and measured after 24 hrs by MTT assay; type: functional, cell-based; settings: dose 0.01-10 µM, time 48.0 hrs
[13] = target: T1, Amine oxidase [flavin-containing] A (Homo sapiens, UniProt P21397); assay: Inhibition of human MAO-A expressed in baculovirus infected BTI insect cells preincubated for 15 mins followed by p-tyramine addition by amplex red reagent based fluorescence microplate reader assay
T1 sequence (P21397 whole entry): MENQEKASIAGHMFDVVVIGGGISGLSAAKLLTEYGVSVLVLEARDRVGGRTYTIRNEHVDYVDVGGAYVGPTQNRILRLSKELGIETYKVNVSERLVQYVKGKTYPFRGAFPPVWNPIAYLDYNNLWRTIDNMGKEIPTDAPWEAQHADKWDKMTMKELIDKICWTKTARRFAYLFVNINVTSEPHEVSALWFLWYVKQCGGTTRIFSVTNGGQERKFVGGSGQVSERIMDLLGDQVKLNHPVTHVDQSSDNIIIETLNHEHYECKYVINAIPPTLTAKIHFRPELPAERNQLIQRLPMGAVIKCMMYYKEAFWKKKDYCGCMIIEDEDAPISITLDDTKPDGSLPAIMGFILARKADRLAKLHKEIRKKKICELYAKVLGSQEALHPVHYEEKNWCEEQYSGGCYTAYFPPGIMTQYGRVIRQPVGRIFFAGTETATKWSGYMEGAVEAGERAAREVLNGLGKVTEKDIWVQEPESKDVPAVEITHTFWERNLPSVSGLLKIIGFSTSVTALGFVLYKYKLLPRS

[14] = Octanol-water partition coefficient, logD of the compound at pH 7.4; type: physicochemical
[15] = Octanol-water partition coefficient, logD of the compound at pH 6.5; type: physicochemical
[16] = Octanol-water partition coefficient, logD of the compound at pH 10; type: physicochemical
CHO = assay: Displacement of 2-[125I]iodomelatonin from human MT1R transfected in CHO cells at 10 uM incubated for 30 mins relative to control; type: cell-based
[17] = target: T2, Amine oxidase [flavin-containing] B (Homo sapiens, UniProt P27338); assay: Inhibition of human MAO-B expressed in baculovirus infected BTI insect cells preincubated for 15 mins followed by p-tyramine addition by amplex red reagent based fluorescence microplate reader assay; type: cell-based
T2 sequence (P27338 whole entry): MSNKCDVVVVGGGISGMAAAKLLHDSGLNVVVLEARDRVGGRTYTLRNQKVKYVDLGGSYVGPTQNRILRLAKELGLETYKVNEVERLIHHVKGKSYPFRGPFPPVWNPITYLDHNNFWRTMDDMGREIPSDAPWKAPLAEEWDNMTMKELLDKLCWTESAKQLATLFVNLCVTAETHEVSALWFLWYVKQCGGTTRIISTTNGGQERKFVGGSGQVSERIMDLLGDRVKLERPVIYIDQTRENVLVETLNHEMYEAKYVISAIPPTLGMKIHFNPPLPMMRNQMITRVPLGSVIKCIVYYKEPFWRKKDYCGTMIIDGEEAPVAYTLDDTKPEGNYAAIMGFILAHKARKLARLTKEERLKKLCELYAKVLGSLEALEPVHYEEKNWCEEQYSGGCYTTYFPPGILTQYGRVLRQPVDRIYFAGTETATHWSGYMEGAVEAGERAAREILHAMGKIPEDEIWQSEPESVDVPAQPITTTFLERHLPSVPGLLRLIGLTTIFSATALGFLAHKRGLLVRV

[18] = target: T3, Polyunsaturated fatty acid 5-lipoxygenase (Homo sapiens, UniProt P09917); assay: Inhibition of human LOX-5 preincubated for 10 mins followed by AA addition and measured after 20 mins in presence of ATP by fluorescence based assay
T3 sequence (P09917 whole entry): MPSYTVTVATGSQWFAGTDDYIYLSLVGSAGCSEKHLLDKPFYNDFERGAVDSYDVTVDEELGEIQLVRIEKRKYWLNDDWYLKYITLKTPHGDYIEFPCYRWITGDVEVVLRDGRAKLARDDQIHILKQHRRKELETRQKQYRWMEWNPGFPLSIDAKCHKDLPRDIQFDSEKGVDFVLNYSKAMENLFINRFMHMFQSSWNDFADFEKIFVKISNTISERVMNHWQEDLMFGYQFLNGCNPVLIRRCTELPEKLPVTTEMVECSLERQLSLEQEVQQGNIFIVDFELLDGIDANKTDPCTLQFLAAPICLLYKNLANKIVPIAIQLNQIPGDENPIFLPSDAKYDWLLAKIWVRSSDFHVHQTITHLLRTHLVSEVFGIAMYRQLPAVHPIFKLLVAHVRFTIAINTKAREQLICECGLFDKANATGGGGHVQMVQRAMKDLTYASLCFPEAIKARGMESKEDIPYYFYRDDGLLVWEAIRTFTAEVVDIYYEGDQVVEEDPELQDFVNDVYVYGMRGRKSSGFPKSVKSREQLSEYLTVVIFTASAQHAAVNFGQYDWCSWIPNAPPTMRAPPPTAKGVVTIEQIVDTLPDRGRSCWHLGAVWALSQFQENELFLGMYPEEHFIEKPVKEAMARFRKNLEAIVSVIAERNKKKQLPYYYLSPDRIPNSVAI

[19] = Octanol-water partition coefficient, logD of the compound at pH 4; type: physicochemical
[20] = Octanol-water partition coefficient, logD of the compound at pH 12; type: physicochemical
[21] = Octanol-water partition coefficient, logD of the compound at pH 8; type: physicochemical
[22] = Octanol-water partition coefficient, logD of the compound at pH 7; type: physicochemical
[23] = Octanol-water partition coefficient, logD of the compound at pH 5; type: physicochemical
NSC [24] = assay: Neurogenic activity in C57BL/6 mouse primary NSCs assessed as increase in number of TuJ-1 cells at 10 uM incubated for 10 days by DAPI staining based fluorescence confocal microscopy; type: functional, cell-based; settings: time 10.0 day
[25] = Octanol-water partition coefficient, logD of the compound at pH 11; type: physicochemical
[26] = Octanol-water partition coefficient, logD of the compound at pH 9; type: physicochemical
[27] = Octanol-water partition coefficient, logD of the compound at pH 1; type: physicochemical
[28] = Octanol-water partition coefficient, logD of the compound at pH 2; type: physicochemical
[29] = target: T4, Ribosyldihydronicotinamide dehydrogenase [quinone] (Homo sapiens, UniProt P16083); assay: Inhibition of human QR2 expressed in Escherichia coli preincubated with BNAH or NRH followed by menadione addition by FLUOstar plate reader assay
T4 sequence (P16083 whole entry): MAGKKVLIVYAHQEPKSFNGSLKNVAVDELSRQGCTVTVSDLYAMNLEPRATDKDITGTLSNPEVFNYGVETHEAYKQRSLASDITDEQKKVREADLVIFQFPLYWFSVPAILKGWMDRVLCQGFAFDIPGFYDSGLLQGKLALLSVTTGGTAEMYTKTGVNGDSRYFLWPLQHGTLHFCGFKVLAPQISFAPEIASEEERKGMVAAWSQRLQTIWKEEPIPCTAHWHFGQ

COc1ccc2[nH]cc(CCNC(C)=O)c2c1 [MELATONIN] gave a Ki [1] of 0.27 nM, a solubility at 24 h [2] of 6.64 mM (≈ 1540 µg/mL) and a viability at 1 µM (SH-SY5Y [3]) of 43%. For the same compound, the Activity (SH-SY5Y [4]) was “Non-Toxic”, the Ki [5] was 0.13 nM and the Activity [6] was 2.3.
For COc1ccc2c(c1)CC(c1c[nH]c3ccc(OC)cc13)N2 (stereo unspecified), the logD [7] was 1.78, the logD [8] was 3.26 and the pKa [9] was 5.26. For the same compound, the Activity (NSC [10]) was “Active”, the logD [11] was 1.65 and the Activity (SH-SY5Y [12]) was “Dose-Dependent Effect”. For the same compound, the IC50 [13] was 2540 nM, the Ki [1] was roughly 10000 nM and the logD [14] was 3.31. It also gave a logD [15] of 3.3, a logD [16] of 3.31 and an Activity (CHO) of 58%. The solubility at 24 h [2] was 0.0329 mM (≈ 9.68 µg/mL), the IC50 [17] was 3690 nM and the viability at 1 µM (SH-SY5Y [3]) was 50%. The IC50 [18] was 5300 nM, the Activity (SH-SY5Y [4]) was “Non-Toxic” and the logD [19] was 2.28. For the same compound, the logD [20] was 3.31, the logD [21] was 3.31 and the logD [22] was 3.31. For the same compound, the Ki [5] was 620 nM, the logD [23] was 2.97 and the Activity (NSC [24]) was “Active”. The Activity [6] was 2.3, the logD [25] was 3.31 and the logD [26] was 3.31. The logD [27] was 1.66 and the logD [28] was 1.67.
Work on COc1ccc2c(n1)c(CCNC(=O)c1ccco1)c1n2Cc2cccnc2-1 yielded an IC50 [29] of 5 nM.
